# Assay results published in patent US6245738A, “Cytokine restraining agents” (Trega Biosciences, Inc., priority 1994, dated 2001).
# Square brackets hold non-standard residues; d marks the D form. Peptide text beside a SMILES is read from it.
# Experiments:
# TNF-α [1] = assay: Reduction of LPS-induced TNF-α levels in mice (ip peptide), plasma ELISA; format: in vivo, Balb/c female mice; settings: 1 min before 5 mg/kg LPS ip, vs control mice
# Procedure: Balb/c female mice weighing approximately 20 g were placed into two groups, a control group and a treated group. Five mg/kg of LPS in 0.9% saline was administered by intraperitoneal (ip) injection into the control mice. Mice in the treated group were first injected ip with 30 μg EX-2 or 150 μg EX-3 in saline, then, one minute after EX-2 or EX-3 was administered, the mice received LPS as described for the control group.
# Blood samples were collected from the orbital sinus of treated and control mice at various times up to four hours after LPS was administered. The plasma was separated by centrifugation at 3000×g for 5 min, then diluted with four volumes of 1× phosphate buffer saline (pH 7.4) containing 1% bovine serum albumin. A 100 μl sample of serum was assayed by ELISA for TNF-α (Genzyme; Cambridge Mass.).
# The mean (+/-SEM) TNF-α level in six mice from each group was determined and the percent reduction in TNF levels was calculated.
# interleukin-6 (IL-6) = assay: Reduction of LPS-induced interleukin-6 levels in mice, IL-6-specific ELISA; format: in vivo, Balb/c mice; settings: 300 μg/mouse (Table I), LPS treated mice; vs control mice
# Procedure: Balb/c mice were grouped and treated as described in Example III, above. Blood samples were obtained from the orbital sinus at various times up to six hours and serum was collected and diluted as described above. A 100 μl aliquot was assayed for IL-6 levels using an IL-6-specific ELISA by a modification of the method of Starnes et al., J. Immunol. 145:4185-4194 (1990), which is incorporated herein by reference.
# The mean (+/-SEM) IL-6 level in six mice from each group was determined and the percent reduction in IL-6 was calculated.
# LPS-induced lethality [2] = assay: Lipopolysaccharide-induced lethality (ip peptide); format: in vivo, adult female Balb/c mice; settings: 11 × 300 μg/mouse ip (3.3 mg total), every 4 hr; 0.6 mg LPS
# Procedure: These experiments were performed based on information reported by Rivier et al., Endocrinology 125:2800-2805 (1989), which is incorporated herein by reference. Adult female Balb/c mice were provided food and water ad libitum. Mice were injected ip every four hours for 40 hr with 30 to 300 μg EX-2 or EX-3 in 0.2 ml saline (treated group) or with 0.2 ml saline, alone (control group) (10 mice per group). Immediately following the first injection, 0.6 mg LPS endotoxin in 0.2 ml saline was administered to each mouse. Following LPS injection, EX-2 or saline was administered to the treated mice or the control mice, respectively, every 4 hr for 36 hr.
# [3] = system: IL-1β-induced hyperalgesia; assay: Interleukin-1β-induced hyperalgesia, paw pressure test; format: in vivo, adult male Sprague-Dawley rats; settings: 1 μg ip, 20 min before intraplantar IL-1β; 2 hr after IL-1
# Procedure: These experiments were performed using a modification of the methods described by Poole et al., Br. J. Pharmacol. 106:489-492 (1992); Follenfant et al., Br. J. Pharmacol. 98:41-43 (1989); and Randall and Sellito, Arch. Internatl. Pharmacodyn. 111:409-419 (1957), each of which is incorporated herein by reference. Adult male Sprague-Dawley rats (175-275 g) were tested for hyperalgesia by a paw pressure technique using variable pressure instrumentation (IITC Life Sciences; Woodland Hills, Calif.). Rats were acclimated to the housing environment and were handled for three days prior to beginning a training session. On the day before the hyperalgesia experiments was to begin, each rat was placed into a sock and two variable paw pressure tests were performed 15 min apart. […] Approximately 5-10% of the rats were non-responders and were eliminated from further experiments.
# Animals that responded to the paw pressure were pretreated by ip injection of various concentrations of EX-2 in a volume of 1 ml/kg (treated) or saline, alone (control). After 20 min, 100 μl of IL-1β (1U/100 μl) was administered to rats via intraplantar injection. Two hr after IL-1 administration, rats were subjected to two additional paw pressure tests and the increase in mm Hg of pressure that could be applied to the EX-2-treated rats as compared to the control rats was determined.
# [4] = system: LPS-induced PMN infiltration in lungs; assay: Adult respiratory distress syndrome: PMN count in broncho-alveolar lavage after intratracheal LPS; format: in vivo, male Harlan Sprague-Dawley rats; settings: 100 μg/kg ip at 0, 2 and 4 hr; lavage at 6 hr after intratracheal LPS 5 mg/kg
# Procedure: These experiments were performed using a modification of the methods described by Ulich et al., Am. J. Pathol. 141:61-68 (1992) and by Wheelden et al., Lab. Animals 26:29-37 (1992), each of which is incorporated herein by reference. Male Harlan Sprague-Dawley rats were anesthetized using a mixture of 70 mg/kg ketamine and 6 mg/kg rompun injected ip. A 2-3 cm incision was made in the neck of each anesthetized rat and its trachea was exposed by blunt dissection of the surrounding soft tissue. The rats were suspended on a near vertical slab and intratracheal injections were performed by inserting into the exposed trachea, at a point 1 cm posterior to the larynx, a 25G×1/2 inch needle attached to a 1 cc syringe.
# Each rat received 0.5 ml/kg of saline or 0.5 ml/kg of 10 mg/ml (5 mg/kg) LPS endotoxin via slow intratracheal administration. Immediately following administration of the LPS endotoxin, rats were injected ip with 1 ml/kg of either saline (control) or saline containing various concentrations of EX-2 (treated). The rats were maintained in the elevated position for 1-2 min to facilitate distribution of the LPS and saline into the lung. The incisions were closed and the rats were allowed to recover. […]
# The total polymorphonuclear leukocytes (PMN; neutrophils) in the broncho-alveolar lavage fluid were counted in the EX-2-treated rats and compared with the number in the control rats.
# [5] = system: arachidonic acid-induced ear swelling; assay: Arachidonic acid-induced ear swelling; format: in vivo, female Balb/c mice; settings: 100 μg/mouse ip, 30 min prior to AA; 60 min after AA application
# Procedure: Experiments were performed using female Balb/c mice weighing 18-23 grams. Saline or 100 μg EX-2 or EX-3 was administered ip, 30 min prior to topical application of arachidonic acid (AA). A 10 μl pipet was used to apply 10 μl AA solution (100 mg/ml ethanol; Calbiochem-Novabiochem; San Diego, Calif.) to the inner and outer surfaces of the right ear of each mouse. Ten μl ethanol, alone, was applied to the inner and outer surface of the left ear of each mouse. Ear thickness was measured with a hand-held spring loaded caliper immediately before and 60 min after AA application. Increase in ear thickness was calculated by subtracting the change observed in the control ear from the change observed in AA-treated ear. The value for each group (saline and control) is the average of the swelling observed in the individual mice in each group. The percent reduction of swelling is based on the swelling observed in the saline control group.
# TNF-α [6] = assay: LPS-induced TNF-α levels, orally administered peptide (gavage); format: in vivo, Balb/c female mice; settings: 1 min before 0.1 mg LPS ip
# Procedure: The ability of orally administered cytokine restraining agents to reduce LPS-induced TNF-α levels also was examined. Balb/c female mice (20 g) were administered 150 μg or 300 μg EX-2, EX-3, EX-4 or EX-5 in 100 μl saline by gavage. Control mice received 100 μl saline, alone. One minute later, 0.1 mg LPS was administered by ip injection. Samples were collected and TNF-α levels were determined as described in Example III, above.
# The mean TNF-α levels in the mice from each group (n=9-20) was determined and the percent reduction in TNF-α levels was calculated.
# LPS-induced lethality [7] = assay: LPS-induced lethality, orally administered peptide (gavage); format: in vivo, adult female Balb/c mice; settings: 0.6 mg LPS ip
# Procedure: The LPS-induced lethality studies were performed based on information reported by Rivier et al., supra, 1989. Adult female Balb/c mice were provided food and water ad libitum. Mice were administered 150 μg or 300 μg EX-2, EX-3, EX-4 or EX-5 in 100 μl saline by gavage every 4 hr for 40 hr (total doses of 1.65 mg and 3.3 mg, respectively). Control mice received 100 μl saline, alone. Immediately following the first dose of cytokine restraining agent or saline, 0.6 mg LPS in 0.2 ml saline was administered by ip injection.
# [8] = 3.3 mg total (300 μg by gavage every 4 hr for 40 hr)
Compound,Inhibition of LPS-induced Lethality (increase in survival) (LPS-induced lethality [2]),Reduction in arachidonic acid-induced Ear Swelling [5],"percent reduction in TNF-α levels, oral (TNF-α [6]; 300 μg by gavage)","increase in survival, oral (LPS-induced lethality [7]; [8])",other results
"CCCC[C@H](NC(C)=O)C(=O)N[C@@H](CCC(N)=O)C(=O)N[C@@H](Cc1c[nH]cn1)C(=O)N[C@H](Cc1ccccc1)C(=O)N[C@@H](CCCNC(=N)N)C(=O)N[C@H](Cc1c[nH]c2ccccc12)C(=O)NCC(N)=O [EX-2, Ac-Nle-Gln-His-(D)Phe-Arg-(D)Trp-Gly-NH2]",83%,72%,–,–,Reduction in TNF levels (TNF-α [1]; 30 μg/mouse ip): 50%; Reduction in IL-6 levels (interleukin-6 (IL-6)): 60%; Reduction in IL-1-induced Hyperalgesia (increase in tolerated paw pressure) [3]: 125%; Reduction in LPS-induced PMN Count [4]: 58%
"CC(=O)N[C@H](C(=O)N[C@@H](CCC(N)=O)C(=O)N[C@@H](Cc1c[nH]cn1)C(=O)N[C@H](Cc1ccccc1)C(=O)N[C@@H](CCCNC(=N)N)C(=O)N[C@H](Cc1c[nH]c2ccccc12)C(=O)NCC(N)=O)C1CCCCC1 [EX-3, Ac-(cyclohexyl)Gly-Gln-His-(D)Phe-Arg-(D)Trp-Gly-NH2]",86%,62%,40%,–,"Reduction in TNF levels (TNF-α [1]; 150 μg/mouse ip): 56%; percent reduction in TNF-α levels, oral (TNF-α [6]; 150 μg by gavage): 49%"
"CC(=O)N[C@@H](Cc1c[nH]cn1)C(=O)N[C@H](Cc1ccccc1)C(=O)N[C@@H](CCCNC(=N)N)C(=O)N[C@H](Cc1c[nH]c2ccccc12)C(N)=O [EX-5, Ac-His-(D)Phe-Arg-(D)Trp-NH2]",–,–,–,44%,"increase in survival, oral (LPS-induced lethality [7]; 1.65 mg total (150 μg by gavage every 4 hr for 40 hr)): 68%"
"CC(=O)N[C@@H](Cc1c[nH]cn1)C(=O)N[C@H](Cc1ccccc1)C(=O)N[C@@H](CCCNC(=N)N)C(=O)N[C@H](Cc1c[nH]c2ccccc12)C(=O)NCC(N)=O [EX-4, Ac-His-(D)Phe-Arg-(D)Trp-Gly-NH2] (Ac-H[dF]R[dW]G-NH2)",–,–,44%,63%,–
